# Experimental data taken from patent publication US8501911B2, “Methods of reducing inflammation and mucus hypersecretion” (Biomarck Pharmaceuticals, Ltd, priority 1999, dated 2013).
# Several values for one entry are separate records, joined by “and”; a condition that tells them apart may be missing. Equal values may be shown once. Read-outs that look alike come from different tables or passages of the source. Residues, ends and D or L forms follow the SMILES beside them. *: point of attachment. Myristoyl = CCCCCCCCCCCCCC(=O)*
# Tests used:
# human neutrophils = assay: Inhibition of release of myeloperoxidase (MPO) from PMA-stimulated human neutrophils; assay type: cell-based; settings: at 100 μM of test peptide; 100 nM PMA
# From the text: Human neutrophil isolation: Human neutrophils were isolated according to a slightly modified method previously described by Akasaki T, Koga H, and Sumimoto H., Phosphoinositide 3-kinase-dependent and -independent activation of the small GTPase Rac2 in human neutrophils, J. Biol. Chem. 274:18055-18059, 1999. Alternatively, human neutrophils were isolated as previously described (see Takashi S, OkuboY, Horie S. Contribution of CD54 to human eosinophil and neutrophil superoxide production. J. Appl. Physiol. 91:613-622, 2001) with slight modifications. Briefly, heparinized venous blood was obtained from normal healthy human volunteers, diluted with RPMI-1640 (Cellgro; Mediatech, Inc., Herndon, Va.) at a ratio of 1:1, layered onto a Histopaque (density, 1.077 g/ml; Sigma-Aldrich Co., St. Louis, Mo.), and centrifuged at 400 g for 20 min at 4° C. The supernatant and mononuclear cells at the interface were carefully removed, and erythrocytes in the sediment were lysed in chilled distilled water. Isolated granulocytes were washed twice with Hanks' balanced salts solution (HBSS) and resuspended in HBSS on ice. The neutrophils used for the experiments were of >98% purity with <2% contamination by eosinophils, and the viability was >99% as determined by Trypan blue dye exclusion.
# Measurement of released MPO activity: Purified human neutrophils suspended in HBSS were aliquoted at 4×10^6 cells/ml in 15 ml tubes and preincubated with either 50 or 100 μM of test peptide (dissolved in PBS, pH 7.0) for 10 min at 37° C. […] Secretions were quantified by using as a standard, human MPO.
# MPO activity in the cell supernatant was assayed using tetramethylbenzidine (TMB) based on a previously established technique (Paige L, Mahmudi-Azer S, Bablitz B, Hage S C, Velazquez J R, Man S F P, and Moqbel R. Rapid Mobilization of intracellularly stored RANTES in response to Interferon-γ in human eosinophils. Blood, 94:23-32, 1999). […] The reaction was terminated by addition of 50 μl of 1M H2SO4 and absorbance was read at 450 nm in a spectrophotometric microplate reader (Molecular Devices, Sunnyvale, Calif.).
# NHBE cells = assay: PMA+8-Br-cGMP-induced mucin secretion from NHBE cells (ELISA); assay type: cell-based, human; settings: for Mucin secretion level relative to media control: pre- and co-incubation with 100 nM PMA+1 μM 8-Br-cGMP (Results-M-1A/M-3A)
# Experimental: Peptide Blocking Studies—NHBE cells were preincubated with either the MANS or the RNS peptide (1-100 μM) for 15 min, and then PMA (100 nM)+8-Br-cGMP (1 μM) or UTP (100 μM) was added, and cells were incubated for an additional 15 min or 2 h. respectively. Mucin secretion was measured by ELISA and experimental results are designated as Results-I-2B-1 and Results-I-2B-2, as follows. […]
# Measurement of Mucin Secretion by ELISA—Before collection of “base line” and “test” mucin samples, the accumulated mucus at the apical surface of the cells was removed by washing with phosphate-buffered saline, pH 7.2. To collect the base-line secretion, cells were incubated with medium alone, and secreted mucin in the apical medium was collected and reserved. Cells were rested for 24 h and then exposed to medium containing the selected stimulatory and/or inhibitory reagents (or appropriate controls), after which secreted mucin was collected and reserved as the test sample. Incubation times for the base line and the test were the same but varied depending on the test reagent utilized. Both base line and test secretions were analyzed by ELISA using an antibody capture method as known in the art. See, e.g., Harlow et al., Antibodies: A Laboratory Manual, pp. 570-573, Cold Spring Harbor Laboratory, Cold Spring Harbor, N.Y. (1988). The primary antibody for this assay was 17Q2 (Babco, Richmond, Calif.), a monoclonal antibody that reacts specifically with a carbohydrate epitope on human airway mucins. The ratio of test/base-line mucin, which is similar to a “secretory index”, was used to quantify mucin secretion, allowing each culture dish to serve as its own control and thus, minimizing deviation caused by variability among culture wells. Wright et al., Am. J. Physiol. 271, L854-L861 (1996). Levels of mucin secretion were reported as percentage of the medium control.
# MARCKS-related Peptides—Both the myristoylated N-terminal sequence (MANS) and the random N-terminal sequence (RNS) peptides were synthesized at Genemed Synthesis, Inc. (San Francisco, Calif.), then purified by high pressure liquid chromatography (>95% pure), and confirmed by mass spectroscopy with each showing one single peak with an appropriate molecular mass. The MANS peptide consisted of sequence identical to the first 24 amino acids of MARCKS, i.e. the myristoylated N-terminal region that mediates MARCKS insertion into membranes, MA-[…] (SEQ ID NO: 1) (where MA=N-terminal myristate chain). The corresponding control peptide (RNS) contained the same amino acid composition as the MANS but arranged in random order, MA-[…] (SEQ ID NO: 26). The presence of the hydrophobic myristate moiety in these synthetic peptides enhances their permeability to the plasma membranes, enabling the peptides to be taken up readily by cells. To determine the effects of these peptides on mucin secretion, cells were preincubated with the peptides for 15 min prior to addition of secretagogues, and mucin secretion was then measured by ELISA.
# Antisense Oligonucleotides—MARCKS antisense oligonucleotide and its corresponding control oligonucleotide were synthesized at Biognostik GmbH (Gottingen, Germany). NHBE cells were treated with 5 μM antisense or control oligonucleotide apically for 3 days (in the presence of 2 μg/ml lipofectin for the first 24 h). Cells were then incubated with secretagogues, and mucin secretion was measured by ELISA. Total RNA and protein were isolated from treated cells. MARCKS mRNA was assessed by Northern hybridization according to conventional procedures using human MARCKS cDNA as a probe. MARCKS protein level was determined by Western blot using purified anti-MARCKS IgG1 (clone 2F12) as the primary detection antibody.
# The effect on mucus secretion of a myristoylated peptide containing the first 24 amino acids of the human MARCKS protein (MANS; myristoylated N-terminal sequence; SEQ ID NO: ) was tested. Cultured normal human bronchial epithelial cells as described above were used. […]
# [1] = peptide 1 μM, 15 min preincubation, then PMA 100 nM+8-Br-cGMP 1 μM 15 min (Results-I-2B-1)
# [2] = peptide 10 μM, 15 min preincubation, then PMA 100 nM+8-Br-cGMP 1 μM 15 min (Results-I-2B-1)
# [3] = peptide 100 μM, 15 min preincubation, then PMA 100 nM+8-Br-cGMP 1 μM 15 min (Results-I-2B-1)
molecule,measurement,setting,value
CCCCCCCCCCCCCC(=O)NCC(=O)N[C@@H](C)C(=O)N[C@@H](CCC(N)=O)C(=O)N[C@@H](Cc1ccccc1)C(=O)N[C@@H](CO)C(=O)N[C@@H](CCCCN)C(=O)N[C@H](C(=O)N[C@@H](C)C(=O)N[C@@H](C)C(=O)N[C@@H](CCCCN)C(=O)NCC(=O)N[C@@H](CCC(=O)O)C(=O)N[C@@H](C)C(=O)N[C@@H](C)C(=O)N[C@@H](C)C(=O)N[C@@H](CCC(=O)O)C(=O)N[C@@H](CCCNC(=N)N)C(=O)N1CCC[C@H]1C(=O)NCC(=O)N[C@@H](CCC(=O)O)C(=O)N[C@@H](C)C(=O)N[C@@H](C)C(=O)N[C@H](C(=O)N[C@@H](C)C(=O)O)C(C)C)[C@@H](C)O [MANS peptide] (Myristoyl-GAQFSKTAAKGEAAAERPGEAAVA-OH; C-terminus assumed),% Inhibition MPO,human neutrophils,31.2%
same,Relative mucin secretion level referenced to stimulated level (M-3A-3) as 100%,NHBE cells; peptide 1 μM,90%
same,Mucin secretion as % of control,NHBE cells; [1],188%
same,Mucin secretion level relative to media control,NHBE cells; peptide 1 μM,171%
same,Relative mucin secretion level referenced to stimulated level (M-3A-3) as 100%,NHBE cells; peptide 10 μM,61%
same,Mucin secretion as % of control,NHBE cells; [2],129%
same,Mucin secretion level relative to media control,NHBE cells; peptide 10 μM,117%
same,Relative mucin secretion level referenced to stimulated level (M-3A-3) as 100%,NHBE cells; peptide 100 μM,16%
same,Mucin secretion as % of control,NHBE cells; [3],35%
same,Mucin secretion level relative to media control,NHBE cells; peptide 100 μM,29% and 30%
"CCCCCCCCCCCCCC(=O)NCC(=O)N[C@H](C(=O)N[C@@H](C)C(=O)N1CCC[C@H]1C(=O)N[C@@H](C)C(=O)N[C@@H](C)C(=O)N[C@@H](CCC(=O)O)C(=O)NCC(=O)N[C@@H](C)C(=O)NCC(=O)N[C@@H](C)C(=O)N[C@@H](CCC(=O)O)C(=O)N[C@H](C(=O)N[C@@H](CCCCN)C(=O)N[C@@H](CCCNC(=N)N)C(=O)N[C@@H](C)C(=O)N[C@@H](CO)C(=O)N[C@@H](C)C(=O)N[C@@H](CCC(=O)O)C(=O)N[C@@H](C)C(=O)N[C@@H](CCCCN)C(=O)N[C@@H](CCC(N)=O)C(=O)N[C@@H](C)C(=O)N[C@@H](Cc1ccccc1)C(=O)O)C(C)C)[C@@H](C)O [RNS peptide, reference compound] (Myristoyl-GTAPAAEGAGAEVKRASAEAKQAF-OH; C-terminus assumed)",% Inhibition MPO,human neutrophils,0%
same,Mucin secretion as % of control,NHBE cells; [1],216%
same,Mucin secretion as % of control,NHBE cells; [2],208%
same,Mucin secretion as % of control,NHBE cells; [3],206%
"CCCCCCCCCCCCCC(=O)NCC(=O)N[C@@H](C)C(=O)N[C@@H](CCC(N)=O)C(=O)N[C@@H](Cc1ccccc1)C(=O)N[C@@H](CO)C(=O)N[C@@H](CCCCN)C(=O)N[C@H](C(=O)N[C@@H](C)C(=O)N[C@@H](C)C(=O)N[C@@H](CCCCN)C(=O)NCC(=O)N[C@@H](CCC(=O)O)C(=O)O)[C@@H](C)O [SEQ ID NO: 13, N-myristoyl-GAQFSKTAAKGE] (Myristoyl-GAQFSKTAAKGE-OH; C-terminus assumed)",% Inhibition MPO,human neutrophils,43.2%
C[C@@](O)(/C=C/[C@H]1CC=CC(=O)O1)[C@@H](C[C@@H](O)\C=C/C=C\C=C\CO)OP(=O)(O)O [fostriecin],activity at 0.001 µM,"NHBE cells; Homo sapiens, NHBE, inhibitor 1 nM, 15 min preincubation, then PMA 100 nM+8-Br-cGMP 1 μM 15 min, read-out: Mucin secretion as % of control",198%
same,activity at 0.01 µM,"NHBE cells; Homo sapiens, NHBE, inhibitor 10 nM, 15 min preincubation, then PMA 100 nM+8-Br-cGMP 1 μM 15 min, read-out: Mucin secretion as % of control",182%
same,activity at 0.1 µM,"NHBE cells; Homo sapiens, NHBE, inhibitor 100 nM, 15 min preincubation, then PMA 100 nM+8-Br-cGMP 1 μM 15 min, read-out: Mucin secretion as % of control",170%
same,activity at 0.5 µM,"NHBE cells; Homo sapiens, NHBE, inhibitor 500 nM, 15 min preincubation, then PMA 100 nM+8-Br-cGMP 1 μM 15 min, read-out: Mucin secretion as % of control",134%
C=C1[C@@H](O)[C@@H]2O[C@]3(CC[C@H](/C=C/[C@@H](C)[C@@H]4CC(C)=C[C@@]5(O[C@H](C[C@@](C)(O)C(=O)O)CC[C@H]5O)O4)O3)CC[C@H]2O[C@@H]1[C@@H](O)C[C@H](C)[C@H]1O[C@@]2(CCCCO2)CC[C@H]1C [okadaic acid],activity at 0.5 µM,"NHBE cells; Homo sapiens, NHBE, read-out: Mucin secretion as % of control, inhibitor 500 nM, 15 min preincubation, then PMA 100 nM+8-Br-cGMP 1 μM 15 min",157%
same,Reduction in mucin secretion level from PMA+8-Br-cGMP-stimulated level,NHBE cells; inhibitor 500 nM,27%
same,Mucin secretion as % of control,"NHBE cells; inhibitor 500 nM, 15 min preincubation, then PMA 100 nM+8-Br-cGMP 1 μM 15 min",155%
TNF-α,"Mucin secretion level, % of control","NHBE cells; TNF-α 10 ng/ml 4 h, then PMA 100 nM+8-Br-cGMP 1 μM 15 min",255%
